Experimental data: patent US9855265B2, “Methods for treating cancer with TrkA receptor tyrosine kinase antagonists” (VM Oncology LLC, priority 2014, dated 2018)

Assays:
TGFbR2 = biological target: T1, TGFbR2 (Homo sapiens, UniProt P37173); assay: radiometric kinase assay, other kinases: TGFbR2; assay type: biochemical; settings: duplicate
T1 construct: other kinases of recombinant human cytoplasmic domain
Description: (§1) Compound inhibition in a radiometric based mixed micelle assay: In a final reaction volume of 25 μL, TrkA (h) ([…]) is incubated with the kinase reaction buffer (20 mM HEPES (pH 7.5), 10 mM MgCl2, 1 mM EGTA, 0.02% Brij 35, 0.02 mg/ml BSA, 0.1 mM Na3VO4, 2 mM DTT, 1% DMSO), 0.2 mg/ml substrate PolyEY(4:1) and […], and [^33P-ATP](specific activity approx. 500 cpm/pmol, concentration as required). The reaction is initiated by the addition of the MgATP mix. After incubation for at least 40 minutes at room temperature, the reaction is stopped by the addition of 5 μL of a 3% phosphoric acid solution. 10 μL of the reaction is then spotted onto a P30 filtermat and washed three times for 5 minutes in 75 mM phosphoric acid and once in methanol prior to drying and scintillation counting. TrkA: Recombinant Human Cytoplasmic Domain (amino acids 441-796), Histidine-tagged, expressed in insect cells. Activated in vitro via auto-phosphorylation. Mw=42.8 kDa. Substrates for kinases: poly(EY) for TRKA; poly(EY)(4:1) with 2 mM MnCl2, average Mw=16 kDa Standard conditions (unless otherwise specified): 30 nM TRKA, 0.2 mg/ml poly(EY)+2 mM MnCl2, and 10 μM ([γ-^33P]) ATP. Using the similar assay condition with other kinases of recombinant human cytoplasmic domain, the activities of other kinases could be also measured.

VEGFR2/KDR = biological target: T2, VEGFR2/KDR (Homo sapiens, UniProt P35968); assay: radiometric kinase assay, other kinases: VEGFR2/KDR; assay type: biochemical; settings: duplicate
T2 construct: other kinases of recombinant human cytoplasmic domain
Description: as §1

FES/FPS = FES/FPS (Homo sapiens, UniProt P07332); assay: radiometric kinase assay, other kinases: FES/FPS; assay type: biochemical; settings: duplicate
Description: as §1

BMX = BMX (Homo sapiens, UniProt P51813); assay: radiometric kinase assay, other kinases: BMX; assay type: biochemical; settings: duplicate
Description: as §1

P38a/MAPK14 = P38a/MAPK14 (Homo sapiens, UniProt Q16539); assay: radiometric kinase assay, other kinases: P38a/MAPK14; assay type: biochemical; settings: duplicate
Description: as §1

PKCgamma = PKCgamma (Homo sapiens, UniProt P05129); assay: radiometric kinase assay, other kinases: PKCgamma; assay type: biochemical; settings: duplicate
Description: as §1

BTK = BTK (Homo sapiens, UniProt Q06187); assay: radiometric kinase assay, other kinases: BTK; assay type: biochemical; settings: duplicate
BTK, sequence (Q06187 whole entry): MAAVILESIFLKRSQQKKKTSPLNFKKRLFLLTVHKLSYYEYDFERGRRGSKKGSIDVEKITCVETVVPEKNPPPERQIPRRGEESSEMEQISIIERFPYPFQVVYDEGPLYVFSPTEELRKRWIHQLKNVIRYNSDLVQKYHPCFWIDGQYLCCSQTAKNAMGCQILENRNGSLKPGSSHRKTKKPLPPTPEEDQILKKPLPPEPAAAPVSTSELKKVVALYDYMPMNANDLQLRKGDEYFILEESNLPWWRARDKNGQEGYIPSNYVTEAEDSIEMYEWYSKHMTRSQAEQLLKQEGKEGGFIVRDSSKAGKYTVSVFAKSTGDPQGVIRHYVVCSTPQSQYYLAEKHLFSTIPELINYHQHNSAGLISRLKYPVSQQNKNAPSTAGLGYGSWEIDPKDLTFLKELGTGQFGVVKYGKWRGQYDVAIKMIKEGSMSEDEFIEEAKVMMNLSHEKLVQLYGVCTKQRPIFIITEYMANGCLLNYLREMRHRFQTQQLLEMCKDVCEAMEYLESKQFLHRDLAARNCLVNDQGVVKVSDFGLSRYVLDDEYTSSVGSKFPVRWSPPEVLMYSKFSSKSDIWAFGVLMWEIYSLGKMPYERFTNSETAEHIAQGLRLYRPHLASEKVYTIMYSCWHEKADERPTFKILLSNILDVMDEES
Description: as §1

FYN = FYN (Homo sapiens, UniProt P06241); assay: radiometric kinase assay, other kinases: FYN; assay type: biochemical; settings: duplicate
FYN, sequence (P06241 whole entry): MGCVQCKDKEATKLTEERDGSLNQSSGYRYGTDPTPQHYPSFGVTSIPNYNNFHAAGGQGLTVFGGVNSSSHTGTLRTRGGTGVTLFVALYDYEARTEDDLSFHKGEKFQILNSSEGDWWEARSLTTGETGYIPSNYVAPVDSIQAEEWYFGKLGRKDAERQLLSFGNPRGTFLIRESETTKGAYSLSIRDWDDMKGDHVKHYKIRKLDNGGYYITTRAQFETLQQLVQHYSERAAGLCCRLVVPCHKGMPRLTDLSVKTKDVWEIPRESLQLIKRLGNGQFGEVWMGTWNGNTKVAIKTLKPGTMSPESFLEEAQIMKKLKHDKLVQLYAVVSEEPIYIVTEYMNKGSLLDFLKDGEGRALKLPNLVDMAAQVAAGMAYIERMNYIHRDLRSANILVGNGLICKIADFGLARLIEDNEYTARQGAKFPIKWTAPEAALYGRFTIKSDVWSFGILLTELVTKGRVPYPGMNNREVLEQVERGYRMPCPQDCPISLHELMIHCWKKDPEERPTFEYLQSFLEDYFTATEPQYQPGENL
Description: as §1

TrkC = TrkC (Homo sapiens, UniProt Q16288); assay: radiometric kinase assay, other kinases: TrkC; assay type: biochemical; design: other kinases of recombinant human cytoplasmic domain; settings: duplicate
Description: as §1

FLT1 = biological target: T3, FLT1 (Homo sapiens, UniProt P17948); assay: radiometric kinase assay, other kinases: FLT1; assay type: biochemical; settings: duplicate
T3 construct: other kinases of recombinant human cytoplasmic domain
Description: as §1

ITK = ITK (Homo sapiens, UniProt Q08881); assay: radiometric kinase assay, other kinases: ITK; assay type: biochemical; settings: duplicate
Description: as §1

TIE2/TEK = biological target: T4, TIE2/TEK (Homo sapiens, UniProt Q02763); assay: radiometric kinase assay, other kinases: TIE2/TEK; assay type: biochemical; settings: duplicate
T4 construct: other kinases of recombinant human cytoplasmic domain
Description: as §1

IR = biological target: T5, IR (Homo sapiens, UniProt P06213); assay: radiometric kinase assay, other kinases: IR; assay type: biochemical; settings: duplicate
T5 construct: other kinases of recombinant human cytoplasmic domain
Description: as §1

[1] = tested on: SK-HEP-1 human liver cancer cells; assay: Cell Viability and Proliferation Assay, SK-HEP-1; assay type: cell-based; settings: SK-HEP1, after 24 incubation
Description: Cell Viability and Proliferation Assays. To assess the chemosensitivity of tumor cells, cell viability is measured by CellTiter-Glo® Luminescent Cell Viability Assay (Promega; Wis., USA) per the manufacturer's instruction. Briefly, 5×10^3 to 7×10^5 cells/ml are cultured in sterile 96-well plates in the presence of increasing concentrations of the drugs (test article, 0 to 100 μM), or vehicle in RPMI medium. The plates are then incubated for 24 to 96 h, and then 100 μl of CellTiter-Glo reagent is added to lyse the cells. After a 10-min incubation at room temperature, the luminescence is recorded in a luminometer with an integration time of 1 s per well. The luminescence signals for the drug-treated cells are normalized by the luminescence signal obtained from vehicle-treated cells. As an alternative method to quantitate cell viability, the trypan blue exclusion dye method was used. Vehicle- or drug-treated cells were assayed by adding trypan blue solution (0.4% in phosphate-buffered saline [PBS]) to the culture medium. After 3 min, the number of dead cells that retained the dye is compared to the total number of cells to calculate cell viability. GraphPad Prism 5 software is used to calculate IC50 and plot effect-dose curve of drugs. Multiplate reader: EnVision 2104 (PerkinElmer). % of control variability=100*[(X(drug_treated)−L(baseline))/(H(vehicle_control)−L(baseline))]. […]

RAF1 = RAF1 (Homo sapiens, UniProt P04049); assay: radiometric kinase assay, other kinases: RAF1; assay type: biochemical; settings: duplicate
RAF1, sequence (P04049 whole entry): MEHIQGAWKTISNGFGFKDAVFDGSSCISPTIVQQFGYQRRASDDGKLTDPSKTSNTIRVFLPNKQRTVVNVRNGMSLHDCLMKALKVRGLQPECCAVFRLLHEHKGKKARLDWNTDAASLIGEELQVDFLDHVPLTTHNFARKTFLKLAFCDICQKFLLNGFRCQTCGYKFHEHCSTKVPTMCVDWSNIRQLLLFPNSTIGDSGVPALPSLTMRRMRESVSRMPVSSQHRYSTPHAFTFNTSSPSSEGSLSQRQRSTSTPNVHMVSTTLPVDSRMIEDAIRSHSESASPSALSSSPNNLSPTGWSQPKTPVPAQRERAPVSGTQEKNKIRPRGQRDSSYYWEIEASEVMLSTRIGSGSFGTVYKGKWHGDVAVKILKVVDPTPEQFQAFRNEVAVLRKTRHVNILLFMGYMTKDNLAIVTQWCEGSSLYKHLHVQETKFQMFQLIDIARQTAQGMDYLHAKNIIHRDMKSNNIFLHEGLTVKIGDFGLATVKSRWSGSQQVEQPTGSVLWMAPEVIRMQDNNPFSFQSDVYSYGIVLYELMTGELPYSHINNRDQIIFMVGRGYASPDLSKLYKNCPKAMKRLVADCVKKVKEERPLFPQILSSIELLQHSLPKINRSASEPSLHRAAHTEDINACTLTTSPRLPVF
Description: as §1

TrkB = TrkB (Homo sapiens, UniProt Q16620); assay: radiometric kinase assay, other kinases: TrkB; assay type: biochemical; design: other kinases of recombinant human cytoplasmic domain; settings: duplicate
TrkB, sequence (Q16620 455-822 limits assumed): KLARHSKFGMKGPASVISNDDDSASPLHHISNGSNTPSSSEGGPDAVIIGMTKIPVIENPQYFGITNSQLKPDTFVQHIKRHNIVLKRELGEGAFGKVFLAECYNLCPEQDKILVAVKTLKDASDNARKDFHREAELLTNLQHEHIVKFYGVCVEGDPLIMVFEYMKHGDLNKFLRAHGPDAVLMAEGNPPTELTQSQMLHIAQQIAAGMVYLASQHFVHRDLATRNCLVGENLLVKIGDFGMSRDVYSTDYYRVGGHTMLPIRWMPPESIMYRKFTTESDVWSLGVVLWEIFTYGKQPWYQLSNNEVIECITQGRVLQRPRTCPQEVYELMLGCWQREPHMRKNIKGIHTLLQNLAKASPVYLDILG
Description: as §1

PKG1a = PKG1a (Homo sapiens, UniProt Q13976); assay: radiometric kinase assay, other kinases: PKG1a; assay type: biochemical; settings: duplicate
PKG1a, sequence (Q13976 whole entry): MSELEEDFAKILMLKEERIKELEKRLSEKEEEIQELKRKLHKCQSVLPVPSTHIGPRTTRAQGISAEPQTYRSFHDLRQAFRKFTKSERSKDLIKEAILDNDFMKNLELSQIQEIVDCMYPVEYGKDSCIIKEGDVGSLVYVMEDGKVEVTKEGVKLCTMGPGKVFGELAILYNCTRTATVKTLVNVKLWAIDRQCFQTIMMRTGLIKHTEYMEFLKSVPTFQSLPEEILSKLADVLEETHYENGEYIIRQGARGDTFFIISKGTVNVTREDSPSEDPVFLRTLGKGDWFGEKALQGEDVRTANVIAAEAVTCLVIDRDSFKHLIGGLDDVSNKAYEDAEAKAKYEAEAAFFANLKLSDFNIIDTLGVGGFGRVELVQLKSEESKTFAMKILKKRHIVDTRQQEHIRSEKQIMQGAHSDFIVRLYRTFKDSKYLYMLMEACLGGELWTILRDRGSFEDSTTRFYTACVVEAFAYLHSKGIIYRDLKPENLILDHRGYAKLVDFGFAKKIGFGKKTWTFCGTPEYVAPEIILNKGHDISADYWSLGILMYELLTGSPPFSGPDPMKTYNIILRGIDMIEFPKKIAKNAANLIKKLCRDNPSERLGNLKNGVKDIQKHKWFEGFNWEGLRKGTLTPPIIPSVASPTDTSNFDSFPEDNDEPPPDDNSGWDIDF
Description: as §1

IGF-1R = biological target: T6, IGF-1R (Homo sapiens, UniProt P08069); assay: radiometric kinase assay, other kinases: IGF-1R; assay type: biochemical; settings: duplicate
T6 construct: other kinases of recombinant human cytoplasmic domain
T6 sequence (P08069 960-1367 limits assumed): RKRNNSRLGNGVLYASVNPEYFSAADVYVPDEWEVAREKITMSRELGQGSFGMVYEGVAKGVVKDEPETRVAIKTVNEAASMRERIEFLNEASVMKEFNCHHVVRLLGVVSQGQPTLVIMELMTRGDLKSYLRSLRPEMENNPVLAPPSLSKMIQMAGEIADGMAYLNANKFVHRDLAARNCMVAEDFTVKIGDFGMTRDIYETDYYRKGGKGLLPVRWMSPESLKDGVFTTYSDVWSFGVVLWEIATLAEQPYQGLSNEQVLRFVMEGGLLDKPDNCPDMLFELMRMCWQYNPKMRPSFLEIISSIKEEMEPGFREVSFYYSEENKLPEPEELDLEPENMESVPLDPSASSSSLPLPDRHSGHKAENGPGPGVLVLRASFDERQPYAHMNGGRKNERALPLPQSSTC
Description: as §1

PKCbetaI = PKCbetaI (Homo sapiens, UniProt P05771); assay: radiometric kinase assay, other kinases: PKCbetaI; assay type: biochemical; settings: duplicate
PKCbetaI, sequence (P05771 whole entry): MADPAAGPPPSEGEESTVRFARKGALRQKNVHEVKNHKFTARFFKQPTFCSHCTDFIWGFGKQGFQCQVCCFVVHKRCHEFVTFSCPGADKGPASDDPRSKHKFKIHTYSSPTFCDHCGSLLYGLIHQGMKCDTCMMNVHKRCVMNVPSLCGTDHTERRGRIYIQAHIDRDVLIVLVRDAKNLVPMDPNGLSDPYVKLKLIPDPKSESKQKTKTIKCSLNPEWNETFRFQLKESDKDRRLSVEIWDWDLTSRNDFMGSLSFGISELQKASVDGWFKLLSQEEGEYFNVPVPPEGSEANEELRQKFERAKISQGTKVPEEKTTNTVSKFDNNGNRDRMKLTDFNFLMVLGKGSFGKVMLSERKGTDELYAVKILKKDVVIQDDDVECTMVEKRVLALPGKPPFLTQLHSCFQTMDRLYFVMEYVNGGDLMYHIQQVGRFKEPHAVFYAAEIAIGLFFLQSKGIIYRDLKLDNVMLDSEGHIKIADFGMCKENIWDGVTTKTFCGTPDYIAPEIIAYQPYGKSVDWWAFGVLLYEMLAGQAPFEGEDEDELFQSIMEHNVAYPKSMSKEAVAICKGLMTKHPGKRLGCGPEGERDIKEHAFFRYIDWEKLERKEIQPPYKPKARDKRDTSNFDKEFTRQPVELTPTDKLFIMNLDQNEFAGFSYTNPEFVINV
Description: as §1

LCK = LCK (Homo sapiens, UniProt P06239); assay: radiometric kinase assay, other kinases: LCK; assay type: biochemical; settings: duplicate
LCK, sequence (P06239 whole entry): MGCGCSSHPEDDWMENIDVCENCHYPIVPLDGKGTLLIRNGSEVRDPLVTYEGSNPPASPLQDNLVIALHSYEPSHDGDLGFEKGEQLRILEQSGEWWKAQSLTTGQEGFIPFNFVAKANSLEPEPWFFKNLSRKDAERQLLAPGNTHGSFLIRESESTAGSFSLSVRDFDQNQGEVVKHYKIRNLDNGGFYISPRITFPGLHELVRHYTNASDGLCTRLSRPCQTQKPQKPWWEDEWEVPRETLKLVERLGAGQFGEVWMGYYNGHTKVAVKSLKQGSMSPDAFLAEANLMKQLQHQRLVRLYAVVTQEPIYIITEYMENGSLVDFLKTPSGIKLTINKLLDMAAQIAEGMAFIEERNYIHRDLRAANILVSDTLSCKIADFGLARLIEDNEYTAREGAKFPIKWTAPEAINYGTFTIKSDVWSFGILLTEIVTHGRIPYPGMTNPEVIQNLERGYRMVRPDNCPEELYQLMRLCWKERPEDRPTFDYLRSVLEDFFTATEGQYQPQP
Description: as §1

ARAF = ARAF (Homo sapiens, UniProt P10398); assay: radiometric kinase assay, other kinases: ARAF; assay type: biochemical; settings: duplicate
Description: as §1

[2] = tested on: PANC-1 subcutaneous human pancreatic cancer xenografts; assay: PANC-1 Subcutaneous Human Pancreatic Cancer Xenograft Mouse Model
Description: Temperature: 22±3° C. Humidity: 50±20%. Light cycle: 12 hours light and 12 hours dark. Cages: Polycarbonate cages of 300 mm×180 mm×150 mm embedded with the soft wood material were used. The bedding was changed twice a week. Diet: Animals had free access to a certified commercial laboratory diet. Concentrations of contaminants in the diet are routinely analyzed by the manufacturers to ensure the contaminants are below their allowable maximum and thus would not affect the tumor growth.
Water: Animals had free access to sterile drinking water. Cage identification: The identification labels for each cage contained the following information: number of animals, sex, strain, date received, treatment, group number and the starting date of the treatment. Briefly, PANC-1 cell line was originally purchased from the ATCC (CRL-1469) and the PANC-1 primary cell line was derived from the PANC-1 subcutaneously xenograft tumors. The PANC-1 primary cells were maintained in vitro as monolayer culture in DMEM medium supplemented with 10% heat inactivated fetal bovine serum, 100 U/ml penicillin and 100 μg/ml streptomycin and L-glutamine (2 mM) at 37° C. in an atmosphere of 5% CO2 air. The cells growing in exponential phase were harvested and counted for tumor inoculation.
Tumor Cell Inoculation and Randomization. Each animal was inoculated subcutaneously on the right flank with the PANC-1 primary tumor cells (5×10^6/animal) in 0.1 mL of PBS. Tumor development was allowed undisrupted until mean tumor volume reached approximately 85 mm^3. Animals were then randomized into 6 groups, with each group consisting of 8 animals. The test articles were administered to the tumor-bearing animals according to predetermined regimens. […] At the time of routine monitoring, the animals were checked for any effects of tumor growth on normal behavior such as mobility, food and water consumption (by looking only), body weight (BW) gain/loss (BW was measured twice weekly), eye/hair matting and any other abnormal effect. Death and observed clinical signs were recorded on the basis of the numbers of animals within each subset.
Tumor Measurement and the Endpoints: The major endpoint was to evaluate if the tumor growth could be inhibited. Tumor measurement was conducted twice weekly with a caliper and the tumor volume (mm3) is estimated using the formula: TV=a×b^2/2, where a and b are long and short diameters of a tumor, respectively. The tumor sizes were then used for T/C value and TGI (tumor growth inhibition), which are indicators of anti-tumor effectiveness. The T/C value (in percent) is an indication of antitumor effect. T and C are the mean volumes of the treated and control groups, respectively, on a given day. BW change, expressed as %, is calculated using the following formula: BW change (%)=(BW_DayX/BW_Day0)×100, where BW_DayX is BW on a given day, and BW_Day0 was BW on Day 0 (tumor inoculation).
Tumor Sample Collection: Two tumor samples from Group 1, 2 and 3, respectively; six tumor samples from Group 4; five tumor samples from Group 5 and 6, respectively, were snap frozen in liquid nitrogen and kept at −80° C. Total 22 tumor samples were collected.
Statistical Analyses: A one-way ANOVA was performed to compare tumor volumes among groups. All data were analyzed using the SPSS 17.0 software; p<0.05 was considered statistically significant.

FGR = FGR (Homo sapiens, UniProt P09769); assay: radiometric kinase assay, other kinases: FGR; assay type: biochemical; settings: duplicate
FGR, sequence (P09769 whole entry): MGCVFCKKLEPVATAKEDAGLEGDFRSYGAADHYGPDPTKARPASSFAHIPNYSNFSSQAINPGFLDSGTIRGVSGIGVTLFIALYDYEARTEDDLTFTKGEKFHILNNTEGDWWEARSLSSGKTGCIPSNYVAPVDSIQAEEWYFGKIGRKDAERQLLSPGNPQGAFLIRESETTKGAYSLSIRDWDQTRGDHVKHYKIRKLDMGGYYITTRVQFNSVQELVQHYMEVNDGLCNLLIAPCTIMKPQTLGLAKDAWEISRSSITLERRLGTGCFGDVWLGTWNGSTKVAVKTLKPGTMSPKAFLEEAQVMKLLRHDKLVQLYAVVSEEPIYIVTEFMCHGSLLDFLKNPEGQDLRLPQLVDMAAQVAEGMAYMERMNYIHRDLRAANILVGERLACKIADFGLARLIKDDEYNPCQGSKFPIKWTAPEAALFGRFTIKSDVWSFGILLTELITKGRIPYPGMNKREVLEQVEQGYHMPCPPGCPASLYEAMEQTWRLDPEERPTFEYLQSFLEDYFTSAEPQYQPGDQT
Description: as §1

Nc1c(N2CCN(C3CCCCC3)CC2)cc(Nc2ccc(C(=O)O)cc2)c2c1C(=O)c1ccccc1C2=O [Compound 12, 4-{[4-amino-3-(4-cyclohexylpiperazin-1-yl)-9,10-dioxo-9,10-dihydroanthracen-1-yl]amino}benzoic acid]
IC50 (TGFbR2): > 10 µM | IC50 (VEGFR2/KDR): > 10 µM | IC50 (FES/FPS): > 10 µM | IC50 (BMX): > 10 µM | IC50 (P38a/MAPK14): > 10 µM | IC50 (PKCgamma): > 10 µM | IC50 (BTK): > 10 µM | IC50 (FYN): > 10 µM | IC50 (TrkC): > 10 µM | IC50 (FLT1): > 10 µM | IC50 (ITK): > 10 µM | IC50 (TIE2/TEK): > 10 µM | IC50 (IR): > 10 µM | IC50 [1]: ~5 µM | IC50 (RAF1): > 10 µM | IC50 (TrkB): > 10 µM | IC50 (PKG1a): > 10 µM | IC50 (IGF-1R): > 10 µM | IC50 (PKCbetaI): > 10 µM | IC50 (LCK): > 10 µM | IC50 (ARAF): > 10 µM | TGI (%, D18) ([2]; D18, Compound-12 alone, dose not given): 34% | Tumor volume (Mean ± SEM) ([2]; Day 7, Compound-12 alone, dose not given): 84 ± 4 mm^3 | Tumor volume (Mean ± SEM) ([2]; Day 11, Compound-12 alone, dose not given): 111 ± 5 mm^3 | Tumor volume (Mean ± SEM) ([2]; Day 14, Compound-12 alone, dose not given): 157 ± 15 mm^3 | Tumor volume (Mean ± SEM) ([2]; Day 18, Compound-12 alone, dose not given): 234 ± 8 mm^3 | Tumor volume (Mean ± SEM) ([2]; Day 19, Compound-12 alone, dose not given): 276 ± 27 mm^3 | anti-tumor efficacy in words ([2]; alone or in combination with gemcitabine): efficacious in reducing tumor growth | IC50 (FGR): > 10 µM
